ChEMBL document CHEMBL1137182, “Ligand conformation has a definitive effect on 5-HT1A and serotonin reuptake affinity” (Bioorg Med Chem Lett, 2004)

Biological target: Sodium-dependent serotonin transporter (Homo sapiens, UniProt P31645)
Test: Inhibitory activity against human- serotonin reuptake transmitter using [3H]-citalopram as a radioligand

Chain of Sodium-dependent serotonin transporter (P31645 whole entry): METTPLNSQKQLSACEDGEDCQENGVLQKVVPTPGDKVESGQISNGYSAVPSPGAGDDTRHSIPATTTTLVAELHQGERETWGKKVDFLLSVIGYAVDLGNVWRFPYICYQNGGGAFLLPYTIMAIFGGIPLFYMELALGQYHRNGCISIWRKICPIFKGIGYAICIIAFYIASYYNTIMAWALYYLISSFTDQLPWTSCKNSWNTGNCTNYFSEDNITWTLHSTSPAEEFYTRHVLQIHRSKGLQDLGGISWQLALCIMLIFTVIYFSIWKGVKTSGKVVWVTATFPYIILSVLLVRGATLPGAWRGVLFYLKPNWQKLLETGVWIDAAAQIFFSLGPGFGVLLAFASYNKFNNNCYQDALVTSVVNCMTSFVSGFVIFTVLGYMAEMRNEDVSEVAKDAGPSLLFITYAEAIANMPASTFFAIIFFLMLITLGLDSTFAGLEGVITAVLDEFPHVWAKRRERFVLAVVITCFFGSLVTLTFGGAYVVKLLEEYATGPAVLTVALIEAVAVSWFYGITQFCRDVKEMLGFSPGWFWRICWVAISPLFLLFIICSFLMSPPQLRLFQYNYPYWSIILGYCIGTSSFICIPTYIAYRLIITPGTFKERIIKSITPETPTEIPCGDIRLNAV

Structure (SMILES)	IC50
COc1ccc(F)c(CC2CCN([C@H]3CC[C@]4(CC3)OC(=O)c3c5c(ccc34)OCCO5)CC2)c1	430 nM
COc1ccccc1CC1CCN([C@H]2CC[C@]3(CC2)OC(=O)c2c4c(ccc23)OCCO4)CC1	59 nM
O=C1O[C@]2(CC[C@@H](N3CCC(Cc4cc(F)ccc4F)CC3)CC2)c2ccc3c(c21)OCO3	250 nM
COc1ccc(Br)c(CC2CCN([C@H]3CC[C@]4(CC3)OC(=O)c3c5c(ccc34)OCO5)CC2)c1	91 nM
O=C1O[C@]2(CC[C@@H](N3CCC(Cc4ccccc4F)CC3)CC2)c2ccc3c(c21)OCCO3	480 nM
O=C1O[C@]2(CC[C@@H](N3CCC(Cc4cc(Cl)ccc4Cl)CC3)CC2)c2ccc3c(c21)OCO3	92 nM
COc1ccc(F)c(CC2CCN([C@H]3CC[C@]4(CC3)OC(=O)c3c5c(ccc34)OCO5)CC2)c1	400 nM
Oc1nc2cc3c(cc2c2c1[C@@H](N1CCN(Cc4ccccc4I)CC1)CCC2)OCO3	23 nM
O=C1O[C@]2(CC[C@@H](N3CCC(Cc4cc(F)ccc4Br)CC3)CC2)c2ccc3c(c21)OCCO3	77 nM
O=C1O[C@]2(CC[C@@H](N3CCN(Cc4ccccc4I)CC3)CC2)c2ccc3c(c21)OCCO3	54 nM
Oc1nc2cc3c(cc2c2c1[C@@H](N1CCC(Cc4cc(F)ccc4F)CC1)CCC2)OCO3 (stereo in doubt; 3o)	5 nM
O=C1O[C@]2(CC[C@@H](N3CCC(Cc4cc(F)ccc4F)CC3)CC2)c2ccc3c(c21)OCCO3	110 nM
O=C1O[C@]2(CC[C@@H](N3CCC(Cc4ccccc4F)CC3)CC2)c2ccc3c(c21)OCO3	410 nM
O=C1O[C@]2(CC[C@@H](N3CCC(Cc4ccccc4Br)CC3)CC2)c2ccc3c(c21)OCO3	45 nM
O=C1O[C@]2(CC[C@@H](N3CCC(Cc4ccccc4C(F)(F)F)CC3)CC2)c2ccc3c(c21)OCCO3	510 nM
O=C1O[C@]2(CC[C@@H](N3CCC(Cc4ccccc4Cl)CC3)CC2)c2ccc3c(c21)OCO3	140 nM
O=C1O[C@]2(CC[C@@H](N3CCC(Cc4ccccc4Cl)CC3)CC2)c2ccc3c(c21)OCCO3	100 nM
O=C1O[C@]2(CC[C@@H](N3CCC(Cc4cc(F)ccc4Br)CC3)CC2)c2ccc3c(c21)OCO3	82 nM
O=C1O[C@]2(CC[C@@H](N3CCN(Cc4ccccc4I)CC3)CC2)c2ccc3c(c21)OCO3	48 nM
O=C1O[C@]2(CC[C@@H](N3CCC(Cc4ccccc4Br)CC3)CC2)c2ccc3c(c21)OCCO3	73 nM
Oc1nc2cc3c(cc2c2c1[C@@H](N1CCC(Cc4cc(F)ccc4F)CC1)CCC2)OCO3 (stereo in doubt; 4o)	14 nM
O=C1O[C@]2(CC[C@@H](N3CCC(Cc4ccccc4C(F)(F)F)CC3)CC2)c2ccc3c(c21)OCO3	180 nM
COc1ccccc1CC1CCN([C@H]2CC[C@]3(CC2)OC(=O)c2c4c(ccc23)OCO4)CC1	150 nM

Biological target: not listed separately
Test: Inhibitory activity against 5-hydroxytryptamine receptor 1A using (+/-)-[3H]-8-hydroxydipropylaminotetralin
Set-up: species or system Homo sapiens

Structure (SMILES)	IC50
COc1ccc(F)c(CC2CCN([C@H]3CC[C@]4(CC3)OC(=O)c3c5c(ccc34)OCCO5)CC2)c1	11 nM
COc1ccccc1CC1CCN([C@H]2CC[C@]3(CC2)OC(=O)c2c4c(ccc23)OCCO4)CC1	4.3 nM
O=C1O[C@]2(CC[C@@H](N3CCC(Cc4cc(F)ccc4F)CC3)CC2)c2ccc3c(c21)OCO3	22 nM
COc1ccc(Br)c(CC2CCN([C@H]3CC[C@]4(CC3)OC(=O)c3c5c(ccc34)OCO5)CC2)c1	2.4 nM
O=C1O[C@]2(CC[C@@H](N3CCC(Cc4ccccc4F)CC3)CC2)c2ccc3c(c21)OCCO3	12 nM
O=C1O[C@]2(CC[C@@H](N3CCC(Cc4cc(Cl)ccc4Cl)CC3)CC2)c2ccc3c(c21)OCO3	2.3 nM
Oc1nc2cc3c(cc2c2c1[C@@H](N1CCN(Cc4ccccc4I)CC1)CCC2)OCO3	> 1000 nM
O=C1O[C@]2(CC[C@@H](N3CCC(Cc4cc(F)ccc4Br)CC3)CC2)c2ccc3c(c21)OCCO3	11 nM
O=C1O[C@]2(CC[C@@H](N3CCN(Cc4ccccc4I)CC3)CC2)c2ccc3c(c21)OCCO3	9.6 nM
Oc1nc2cc3c(cc2c2c1[C@@H](N1CCC(Cc4cc(F)ccc4F)CC1)CCC2)OCO3 (stereo in doubt; 3o)	440 nM
O=C1O[C@]2(CC[C@@H](N3CCC(Cc4cc(F)ccc4F)CC3)CC2)c2ccc3c(c21)OCCO3	14 nM
O=C1O[C@]2(CC[C@@H](N3CCC(Cc4ccccc4F)CC3)CC2)c2ccc3c(c21)OCO3	14 nM
O=C1O[C@]2(CC[C@@H](N3CCC(Cc4ccccc4Br)CC3)CC2)c2ccc3c(c21)OCO3	9.6 nM
O=C1O[C@]2(CC[C@@H](N3CCC(Cc4ccccc4C(F)(F)F)CC3)CC2)c2ccc3c(c21)OCCO3	43 nM
O=C1O[C@]2(CC[C@@H](N3CCC(Cc4ccccc4Cl)CC3)CC2)c2ccc3c(c21)OCO3	10 nM
O=C1O[C@]2(CC[C@@H](N3CCC(Cc4ccccc4Cl)CC3)CC2)c2ccc3c(c21)OCCO3	19 nM
O=C1O[C@]2(CC[C@@H](N3CCC(Cc4cc(F)ccc4Br)CC3)CC2)c2ccc3c(c21)OCO3	14 nM
O=C1O[C@]2(CC[C@@H](N3CCN(Cc4ccccc4I)CC3)CC2)c2ccc3c(c21)OCO3	9.6 nM
O=C1O[C@]2(CC[C@@H](N3CCC(Cc4ccccc4Br)CC3)CC2)c2ccc3c(c21)OCCO3	9.8 nM
Oc1nc2cc3c(cc2c2c1[C@@H](N1CCC(Cc4cc(F)ccc4F)CC1)CCC2)OCO3 (stereo in doubt; 4o)	450 nM
O=C1O[C@]2(CC[C@@H](N3CCC(Cc4ccccc4C(F)(F)F)CC3)CC2)c2ccc3c(c21)OCO3	67 nM
COc1ccccc1CC1CCN([C@H]2CC[C@]3(CC2)OC(=O)c2c4c(ccc23)OCO4)CC1	6.7 nM
